These results are taken from patent US20200031866A1, “PEPTIDE INHIBITORS OF SODIUM CHANNELS” (SPYRYX BIOSCIENCES, INC., priority 2016, published 2020).

The subject of one series is proteases. Format: in vitro ADME.
In series [1] the target is T1, ENaC (Homo sapiens, UniProt P37088+P51168+P51170).
T1 construct: Peptides were added mucosally to HBECs at 30 μM and ASL height measured 3 h later by XZ-confocal microscopy; endogenous in cells; host or cells: primary human bronchial epithelial cultures (HBECs) at air-liquid interface
T1 sequence (P37088 1-669): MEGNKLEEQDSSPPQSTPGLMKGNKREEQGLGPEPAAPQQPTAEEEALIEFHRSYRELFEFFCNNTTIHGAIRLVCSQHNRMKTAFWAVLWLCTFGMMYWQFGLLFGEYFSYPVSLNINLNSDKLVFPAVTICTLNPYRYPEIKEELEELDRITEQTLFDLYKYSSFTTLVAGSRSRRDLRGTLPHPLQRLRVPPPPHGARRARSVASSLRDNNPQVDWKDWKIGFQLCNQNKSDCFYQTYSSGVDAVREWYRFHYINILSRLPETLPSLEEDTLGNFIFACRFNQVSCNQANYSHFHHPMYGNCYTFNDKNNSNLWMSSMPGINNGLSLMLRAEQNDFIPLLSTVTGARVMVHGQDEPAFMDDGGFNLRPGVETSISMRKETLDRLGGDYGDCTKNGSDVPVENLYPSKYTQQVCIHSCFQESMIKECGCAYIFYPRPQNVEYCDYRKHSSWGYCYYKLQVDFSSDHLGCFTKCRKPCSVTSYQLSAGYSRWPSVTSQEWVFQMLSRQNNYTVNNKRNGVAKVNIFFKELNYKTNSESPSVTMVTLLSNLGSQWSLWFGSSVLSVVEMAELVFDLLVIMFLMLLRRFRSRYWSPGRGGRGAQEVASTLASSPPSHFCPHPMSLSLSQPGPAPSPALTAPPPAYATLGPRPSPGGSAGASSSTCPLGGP
T1 sequence (P51168 1-640): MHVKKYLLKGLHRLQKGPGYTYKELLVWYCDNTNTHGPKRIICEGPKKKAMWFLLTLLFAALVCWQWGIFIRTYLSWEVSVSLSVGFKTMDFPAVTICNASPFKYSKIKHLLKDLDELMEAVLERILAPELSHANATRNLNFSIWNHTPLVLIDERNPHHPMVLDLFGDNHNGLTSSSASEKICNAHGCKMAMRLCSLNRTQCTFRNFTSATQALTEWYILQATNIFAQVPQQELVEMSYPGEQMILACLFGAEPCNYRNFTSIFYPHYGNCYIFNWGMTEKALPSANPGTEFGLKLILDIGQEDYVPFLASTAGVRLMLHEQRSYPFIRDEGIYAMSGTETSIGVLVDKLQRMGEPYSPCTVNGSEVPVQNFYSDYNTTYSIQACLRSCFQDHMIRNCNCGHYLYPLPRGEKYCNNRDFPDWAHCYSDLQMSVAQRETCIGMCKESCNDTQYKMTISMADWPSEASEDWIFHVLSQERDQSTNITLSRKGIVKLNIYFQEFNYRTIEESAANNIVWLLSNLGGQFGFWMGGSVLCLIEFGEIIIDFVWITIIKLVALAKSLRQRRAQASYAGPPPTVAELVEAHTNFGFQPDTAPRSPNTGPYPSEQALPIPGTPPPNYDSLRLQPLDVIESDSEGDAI
T1 sequence (P51170 1-649): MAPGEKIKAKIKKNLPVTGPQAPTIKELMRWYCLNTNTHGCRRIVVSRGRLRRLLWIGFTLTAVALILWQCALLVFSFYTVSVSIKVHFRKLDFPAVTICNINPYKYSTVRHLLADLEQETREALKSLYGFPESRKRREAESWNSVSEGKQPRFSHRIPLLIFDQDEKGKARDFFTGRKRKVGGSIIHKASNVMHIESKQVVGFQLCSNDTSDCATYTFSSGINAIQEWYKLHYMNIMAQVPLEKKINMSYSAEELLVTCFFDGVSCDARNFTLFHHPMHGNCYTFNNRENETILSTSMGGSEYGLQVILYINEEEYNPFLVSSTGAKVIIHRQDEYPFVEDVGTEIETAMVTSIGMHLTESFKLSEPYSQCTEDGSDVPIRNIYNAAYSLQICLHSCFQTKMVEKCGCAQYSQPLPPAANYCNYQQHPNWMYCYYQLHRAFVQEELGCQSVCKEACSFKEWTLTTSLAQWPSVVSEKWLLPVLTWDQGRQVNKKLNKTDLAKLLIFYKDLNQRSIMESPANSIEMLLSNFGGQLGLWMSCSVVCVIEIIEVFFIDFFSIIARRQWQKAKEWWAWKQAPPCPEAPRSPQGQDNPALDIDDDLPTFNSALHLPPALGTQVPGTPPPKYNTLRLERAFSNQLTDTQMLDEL
To be noted: previously demonstrated (Hobbs et al., 2013); cited from earlier work.

Series [2] addresses T2, alpha-ENaC (Homo sapiens, UniProt P37088+P51168+P51170).
T2 construct: expressed in transfected cells; host or cells: HEK293T
T2 sequence (P37088 1-669): T1 sequence (P37088 1-669)
T2 sequence (P51168 1-640): T1 sequence (P51168 1-640)
T2 sequence (P51170 1-649): T1 sequence (P51170 1-649)
The series is described as follows: Internalization of alpha-ENaC in HEK293T cells, GFP-tagged alpha-ENaC co-expressed with beta and gamma ENaC. Format: cell-based. Particulars: beta-ENaC co-expressed, FIGS. 5A-5U. From the text: HEK293T cells were transfected with gfp-αENaC where gfp was fused at the N-terminus of ENaC and unlabeled βENaC and γENaC using lipofectamine in 384 well plates as per the manufacturer's instructions and as published previously (see, e.g., Hobbs et al. Am J Physiol Lung Cell Mol Physiol. 2013 December; 305(12):L990-L1001. doi: 10.1152/ajplung.00103.2013. Epub 2013 October; Garland et al. Proc Natl Acad Sci USA. 2013 Oct. 1; 110(40):15973-8. doi: 10.1073/pnas.1311999110. Epub 2013 Sep. 16.; Tan et al. J Physiol. 2014 Dec. 1; 592(Pt 23):5251-68). Twenty-four hours later, peptide or vehicle control were added at t=0 and fluorescence was read using a Tecan M1000 plate reader 3 h later. Fluorescence was read at 488 nm (excitation)/510 nm (emission).

A further series can be described thus: Heat stability. Format: physicochemical.
The target in series [3] is T3, alpha-ENaC (Homo sapiens, UniProt P37088).
T3 construct: expressed in transfected cells; host or cells: HEK293T
T3 sequence (P37088 1-669): T1 sequence (P37088 1-669)
Briefly: Internalization of alpha-ENaC in HEK293T cells, GFP-tagged alpha-ENaC co-expressed only with gamma ENaC and no beta-ENaC. Format: cell-based. To be noted: FIG. 6. The method, then:
[…] Am J Physiol Lung Cell Mol Physiol. 2013 December; 305(12):L990-L1001. doi: 10.1152/ajplung.00103.2013. Epub 2013 October; Garland et al. Proc Natl Acad Sci USA. 2013 Oct. 1; 110(40):15973-8. doi: 10.1073/pnas.1311999110. Epub 2013 Sep. 16.; Tan et al. J Physiol. 2014 Dec. 1; 592(Pt 23):5251-68). Twenty-four hours later, peptide or vehicle control were added at t=0 and fluorescence was read using a Tecan M1000 plate reader 3 h later. Fluorescence was read at 488 nm (excitation)/510 nm (emission).

For series [4], the target named is T1, ENaC. Briefly: Airway surface liquid (ASL) height in human bronchial epithelial cultures by XZ-confocal microscopy. In kind it is cell-based. Particulars: peptides added mucosally to HBECs at 30 μM, ASL height measured 3 h later; FIGS. 2A-2B. From the text:
Cells were harvested by enzymatic digestion from human bronchial tissue as previously described under a protocol approved by the UNC School of Medicine IRB (Tarran et al., J. Gen. Physiol. 127:591 (2006)). Human excess donor lungs and excised recipient lungs were obtained at the time of lung transplantation from portions of main stem or […] bronchi and cells were harvested by enzymatic digestion. All preparations were maintained at an air-liquid interface in a modified bronchial epithelial medium and used 2-5 weeks after seeding on 12 mm T-Clear inserts (Corning Costar) coated with human placental type VI collagen (Sigma). Phosphate buffered saline (PBS) was used for washing human bronchial epithelial culture mucosal surfaces.
To label airway surface liquid, Ringer containing rhodamine-dextran (2 mg/ml; Invitrogen) was added to human bronchial epithelial culture mucosal surfaces. […] 10 points per culture were scanned and an average airway surface liquid height determined. […]
To confirm our alanine-scan data, we made a peptide of subsequence A (LPVPLDQT (SEQ ID NO:113); FIG. 1). […] Peptides were added mucosally to HBECs at 30 μM and ASL height measured 3 h later by XZ-confocal microscopy. […]

For series [5], the target named is epithelial Na+ channel (ENaC), endogenous in human bronchial epithelial cultures (human, UniProt P37088 1-669; P51168 1-640; P51170 1-649). The series is described as follows: cell-based or functional assay.

Entries after “also recorded” stand apart in the source; their conditions may differ. Square brackets hold non-standard residues; d marks the D form. Ends that are not written are not given here. Nle = CCCC[C@H](N)C(=O)O

Take H-GGLPVPLDQTLPLNVNPA-NH2 [SEQ ID NO:1]: the “susceptibility to proteolytic degradation” value with proteases is reported as “resistant to proteolysis”. On ENaC [1], the “EC50 for inhibition of ENaC” value is on record as “sub micromolar” and the “duration of ENaC inhibition following a single dose” value is “up to 24 h”. For the same molecule, the “reduction of alpha-ENaC / functional receptor on the cell surface” value on alpha-ENaC [2] is on record as “effective in reducing alpha-ENaC”. Besides, the heat stability entry in the series “Heat stability” was “heat-stable”. Besides, the “effect on alpha-ENaC” value on alpha-ENaC [3] is “no effect”.

Regarding “H-LPVPLDQT-NH2 [SEQ ID NO:113, LPVPLDQT]”, the “susceptibility to proteolytic degradation” value in the series on proteases is reported as “more susceptible to proteolytic degradation”. Moreover, the “activity on ASL height / inhibition of ENaC compared with S18” value on ENaC [4] is “retained similar activity to S18; also recorded: required for inhibition of ENaC and preservation of ASL height”.

B1: aaLPNlePLDQTaa (SEQ ID NO:5) (peptide)
peptide: [dA][dA]LP[Nle]PLDQT[dA][dA]-NH2
modifications: N-terminus assumed
SMILES: CCCC[C@H](NC(=O)[C@@H]1CCCN1C(=O)[C@H](CC(C)C)NC(=O)[C@@H](C)NC(=O)[C@@H](C)N)C(=O)N1CCC[C@H]1C(=O)N[C@@H](CC(C)C)C(=O)N[C@@H](CC(=O)O)C(=O)N[C@@H](CCC(N)=O)C(=O)N[C@H](C(=O)N[C@H](C)C(=O)N[C@H](C)C(N)=O)[C@@H](C)O
Consider B1, for which the “IC50, dose response of ASL height on airway cells” value in series [5] stood at 30 nM.
